Laboratory results reported in patent publication US20230280275A1, “PHOTOACTIVATABLE VIBRATIONAL PROBES AND USES THEREOF” (California Institute of Technology, priority 2021, published 2023).

What was measured:
[1] = reported value; cited from earlier work
[2] = UV-Vis absorption spectra; type: physicochemical; details: 20 uM in DMSO
Description: UV-Vis absorption spectra were recorded on a Varian Cary 50 UV-Vis Spectrophotometer (Agilent).

live HeLa cells [3] = experiment: SRS imaging of live HeLa cells incubated with unmethylated probes before and after 405 nm illumination; type: cell-based; details: 20 µM, 30 minutes of labeling; 2226 cm^-1 channel after 405 nm
Description: FIG. 7 provides exemplary results from SRS imaging of live HeLa cells incubated with 1-cyclo (1, 20 µM, 30 minutes of labeling, top) and Cyclo-Mito (7, 20 µM, 30 minutes of labeling, bottom) at the CH3 (2940 cm^-1) channel, and the expected uncaged alkyne channel (2226 cm^-1) before and after 405 nm illumination. Scale bar: 10 µm.
An integrated laser (picoEMERALD, Applied Physics and Electronics, Inc.) was used as a light source for both pump and Stokes beams. It produces 2 ps pump (tunable from 770 nm - 990 nm, bandwidth 0.5 nm, spectral bandwidth ~ 7 cm-1 ) and Stokes (1031.2 nm, spectral bandwidth 10 cm-1 ) beams with 80 MHz repetition rate. Stokes beam is modulated at 20 MHz by an internal electro-optic modulator. […] Laser powers are monitored through image acquisition by an internal power meter and power fluctuation are controlled within 5% by the laser system. […] Fluorescence images were collected using the same Olympus FV3000 confocal microscope with CW laser excitation (405, 488, 561 and 640 nm, Coherent OBIS LX laser) and standard bandpass filter sets. The correlation coefficients (Pearson’s R value) between SRS images and fluorescence images were calculated using ‘Coloc 2’ tool of ImageJ.

[4] = Photoactivation (UV-uncaging) monitored by time-series spontaneous Raman spectra; type: physicochemical; details: 365 nm illumination (15 mW/cm^2); increase of alkyne peak 2226 cm^-1
Description: The 365 nm UV light used to activate cyclopropenones comes from a UV handlamp (Analytik Jena UVP EL Series Lamp, UVLS-24, 4 Watt, 2 UV 254/365 nm, typically used for TLC monitoring in organic synthesis). The power of 365 nm UV of this handlamp was measured to be 15 mW/cm2 on samples.
Next, the photo-uncaging kinetics for both 1-cyclo (1) and 2-cyclo (3) were compared. […] With 365 nm lamp illumination, the characteristic peaks of cyclopropenones (~1860 cm^-1) continue to drop while the alkyne peaks (2226 cm^-1) gradually increase for both molecules (FIG. 1D). […] The progression of the UV-activation reactions could also be confirmed by the change in the corresponding absorption spectra (FIG. 6).

[5] = Spontaneous Raman / hyperspectral SRS spectroscopy of probes and uncaged alkynes; type: physicochemical
Source text: An integrated laser (picoEMERALD, Applied Physics and Electronics, Inc.) was used as a light source for both pump and Stokes beams. It produces 2 ps pump (tunable from 770 nm - 990 nm, bandwidth 0.5 nm, spectral bandwidth ~ 7 cm-1 ) and Stokes (1031.2 nm, spectral bandwidth 10 cm-1 ) beams with 80 MHz repetition rate. Stokes beam is modulated at 20 MHz by an internal electro-optic modulator. The spatially and temporally overlapped pump and Stokes beams are introduced into an inverted multiphoton laser scanning microscopy (FV3000, Olympus), and then focused onto the sample by a 25X water objective (XLPLN25XWMP, 1.05 N.A., Olympus). Transmitted pump and Stokes beams are collected by a high N.A. condenser lens (oil immersion, 1.4 N.A., Olympus) and pass through a bandpass filter (893/209 BrightLine, 25 mm, AVR Optics) to filter out Stokes beam. A large area (10×10 mm) Si photodiode (S3590-09, Hamamatsu) is used to measure the remaining pump beam intensity. 64 V DC voltage was used on the photodiode to increase saturation threshold and reduce response time. The output current is terminated by a 50 Ω terminator and pre-filtered by an 19.2-23.6-MHz band-pass filter (BBP-21.4+, Mini-Circuits) to reduce laser and scanning noise. The signal is then demodulated by a lock-in amplifier (SR844, Stanford Research Systems) at the modulation frequency. The in-phase X output is fed back to the Olympus IO interface box (FV30-ANALOG) of the microscope. Image acquisition speed is limited by 30 µs time constant set for the lock-in amplifier. Correspondingly, we use 80 µs pixel dwell time, which gives a speed of 8.5 s frame-1 for a 320-by-320-pixel field of view. Laser powers are monitored through image acquisition by an internal power meter and power fluctuation are controlled within 5% by the laser system. 16-bit grey scale images are acquired by Fluoview software. SRS spectra were acquired by fixing the Stokes beam at 1031.2 nm and scanning the pump beam through the designated wavelength range point by point. 10 mM EdU (H2O) sample was used as a standard to give RIE of different probes. Fluorescence images were collected using the same Olympus FV3000 confocal microscope with CW laser excitation (405, 488, 561 and 640 nm, Coherent OBIS LX laser) and standard bandpass filter sets. The correlation coefficients (Pearson’s R value) between SRS images and fluorescence images were calculated using ‘Coloc 2’ tool of ImageJ.
To perform spontaneous Raman spectroscopy, spontaneous Raman spectra were acquired using an upright confocal Raman spectrometer (Horiba Raman microscope; Xplora plus). A 532 nm YAG laser is used to illuminate the sample with a power of 12 mW on sample through a 100 x, N.A. 0.9 objective (MPLANN; Olympus) with 100 µm slit and 500 µm hole. Spectro/Raman shift center was set to be 2000.04 cm-1 . With a 1200 grating, Raman shift ranges from 690.81 cm-1 to 3141.49 cm-1 was acquired to cover whole biological relevant Raman peaks. The acquired spectra were processed by the LabSpec 6 software for baseline correction.
Cyclopropenone caging has been previously adopted for photoactivation and subsequent biorthogonal labeling of fluorophores in fluorescence microscopy. […] Herein the alkyne Raman signal generation from photo-DIBO light-activation was first measured (FIG. 1A). […] Compared to 5-ethynyl-2′-deoxyuridine (EdU), the well-adopted benchmark for Raman intensity quantification, the relative Raman intensity to EdU (RIE) of the strained alkyne DIBO is only 1.8 (Table 1). […] Given this, it is reasoned that diphenylcyclopropenone (i.e. cyclopropenone-caged 1-yne, 1-cyclo, 1, FIG. 1A) should be a better photoactivatable Raman scaffold with higher Raman sensitivity after uncaging. Indeed, UV-uncaging of 1-cyclo (1), which started from a similarly weak Raman peak at 1860 cm^-1 from photo-DIBO, produced an intense sharp peak for 1-yne (2) at 2226 cm^-1 (FIG. 1B, dashed black vs solid blue spectra) with an improved RIE values to about 4

live HeLa cells [6] = experiment: Time lapse (pulse-chase) imaging of retained signal after photoactivation; type: cell-based; details: after 2 hours of chasing, 0 h = 100%
Description: FIG. 20 illustrates labeling signal and specificity evaluation during 2 hours of time lapse imaging in photoactivated Me-Mito-^13C (16) labeled live HeLa cells. Panel (a) is a plot showing quantification of retained signals after 1 hour and 2 hours imaging. The values of signals at 0 h were used as 100% signal reference. n = 6 independent experiments. Data shown as mean ± SEM. Panel (b) includes a series of representative time lapse imaging. The magnified images of the bottom cell (indicated by the dashed white box) are shown. Scale bar: 10 µm. The high mitochondria-labeling specificity of the mitochondria probe was confirmed for relatively long-term pulse-chase tracking applications. More than 85% of activated Me-Mito-^13C (16) signals retained in live HeLa cells after 2 hours of chasing ([…]) with well-maintained mitochondria labeling pattern (FIG. 20, panel b). In live HeLa cells labeled with Me-Mito-^13C (16), 405 nm laser was first used to pulse-activate the selected region of a single cell for 20 seconds (FIG. 5A, CH3, the white dashed box indicates the activation area). Immediately after photoactivation, SRS imaging at 2125 cm^-1 well resolved the distribution of mitochondria only from this activated subcellular region (FIG. 5A, Mito0 min, Pulse), implying high spatial selectivity. […]

Abs [2] [nm] | εabs [2] [M⁻¹ cm⁻¹] | RIE (relative Raman intensity to EdU) ([5]; 10 mM EdU (H2O) as standard) | Raman Peak ([5]; cell silent region, model systems) [cm⁻¹] | alkyne Raman peak / SRS channel after uncaging ([5]; organelle probes after UV / 405 nm uncaging) [cm⁻¹] | Compound | quantum yield [1] | uncaging signals in labeled live cells (live HeLa cells [3]) | uncaging kinetics k [4] [s⁻¹] | activated signals retained (live HeLa cells [6])
302 | 28600 | 0.37 | 1860 |  | O=c1c(-c2ccccc2)c1-c1ccccc1 [1-cyclo (1), diphenylcyclopropenone] | 0.78 | did not produce any observable uncaging signals | 0.0044 | 
 |  |  |  | 2125 | Cc1cc(C)c(-[13c]2c(=O)[13c]2-c2c(C)cc(OCCC[P+](c3ccccc3)(c3ccccc3)c3ccccc3)cc2C)c(C)c1.[Br-] [Me-Mito-^13C (16)] |  |  |  | More than 85%
